Results as given in paper PMC2362861, “Potent interaction of flavopiridol with MRP1” (British Journal of Cancer, 1999).
Read-outs that look alike come from different tables or passages of the source.

Key:
[1] = system: GLC4 cells; test: Steady-state cellular [3H]daunorubicin accumulation in GLC4 cells; format: cell-based, human; settings: for Effect on accumulation of DNR in GLC4 cells: 50 µM (μM); for Accumulation of daunorubicin, mean percentages of control (set at 100%): GLC4, (iso)flavonoid 50 µM (μM), 0.5 M DNR, 75 min
[2] = target: T1, MRP1 ATPase activity (Homo sapiens, UniProt P33527); test: ATPase activity of GLC4/ADR plasma membranes (colourimetric inorganic phosphate); format: biochemical; settings: for Induction of ATPase activity of GLC4/ADR membranes in the concentration range tested: glycosylated (iso)flavonoids, Figure 4
T1 construct: plasma membrane vesicles prepared from the MRP1 overexpressing cell line GLC4/ADR; endogenous in cells; host or cells: GLC4/ADR (adriamycin-selected human small-cell lung cancer subline); plasma membrane vesicles
From the text: One form of cellular resistance, directed against a wide spectrum of natural agents, is referred to as multidrug resistance (MDR). […] The ATP-dependent transport of anticancer drugs out of tumour cells that express MDR proteins may at least theoretically lead to impaired treatment outcome of patients. […] 1-Chloro-2,4-dinitrobenzene (CDNB) was from Sigma (St Louis, MO, USA). […] The isoflavonoid genis- tein was from ICN Biomedicals (Zoetermeer, The Netherlands). […] The (iso)flavonoids were dissolved as a stock solution of 40 mM in dimethyl sulphoxide (DMSO; Across Chimica, Belgium) and stored at -20C. Before experiments, 1:1 dilutions were made in ethanol, followed by a dilution in ethanol/water (1: 3; v/v) to the appropriate concentrations. The maximal concentration of DMSO and ethanol, which was also added to the controls, was 0.5% (v/v). Membrane filters OE67 were from Schleicher and Schuell (Dassel, Germany). Doxorubicin hydrochloride was from Laboratoire Roger Bellon (France). […] S1(MRP1) cells were cultured in the presence of G418 until 2-10 days before experiments. […] Cells were harvested by centrifugation (275 g, 5 min) and washed twice in phosphate-buffered saline. Subsequently, the cells were incubated in 100 mM potassium chloride (KCl), 5 mM magnesium chloride (MgCl2 ), 1 mM phenylmethylsulphonyl fluoride and 50 mM HEPES-KOH (pH 7.4) for 1 h at 0C, in order to allow the cells to swell. Then the cells were ultrasonicated at 20% of the maximum power of an MSE sonicator (Soniprep 150) for three bursts of 15 s. The suspension was centrifuged at 1500 g for 10 min. […] After centrifugation at 100 000 g for 60 min the interface was removed and washed in 100 mM KC1-50 mM HEPES-5 mM MgCl2 buffer (pH 7.4). The final membrane preparations were stored at -80C at a protein concentration of ~ 4 mg ml-1 . […] Vesicles were incubated in KCl-HEPES buffer (pH 7.4) at 37C (protein concentration ~ 0.25 mg ml-1 ), in the presence of 10 mM MgCl2 with or without 1 mM ATP and tritium-labelled DNP-SG. The reaction was stopped by adding ice-cold KCl-HEPES buffer. After rapid filtration, the filters were washed twice with KCl-HEPES buffer. The radioactivity on the filters was measured by liquid scintillation counting. […] Plasma membranes were incubated for 1 h in KCl-HEPES buffer (pH 7.4) at 37C, in the presence of 1 mM EGTA, 1 mM sodium azide and 0.1 mM ouabain, with or without 1 mM ATP. […] Plasma membranes from GLC4 cells (black bars) and GLC4 /ADR cells (white bars) were incubated with 10 nM DNP-SG in the absence or presence of the MIB6 antibody (MIB6) (10 g ml-1 ) or an MRP1 control antibody (10 g ml-1 ). […] In short, anti-MRP1 antibodies were tested for their capacity to inhibit DNP-SG transport into GLC4 /ADR inside-out plasma membrane vesicles.

[3] = system: GLC4/ADR cells; test: Steady-state cellular [3H]daunorubicin accumulation in GLC4/ADR cells; format: cell-based, human; settings: for Effect on accumulation of DNR in GLC4/ADR cells: 50 µM (μM); for Accumulation of daunorubicin, mean percentages of control (set at 100%): (iso)flavonoid 50 µM (μM), 0.5 M DNR, 75 min
[4] = system: GLC4/ADR; test: Growth inhibition assay, GLC4/ADR; format: cell-based, human; settings: for Resistance of MRP1 overexpressing cells: 72-h exposures; for IC50: Homo sapiens, GLC-4/ADR, 72 h, read-out: IC50 value
[5] = system: GLC4; test: Growth inhibition assay, GLC4; format: cell-based, human; settings: for IC50: Homo sapiens, read-out: IC50 value
[6] = target: T2, MRP1 (Homo sapiens, UniProt P33527); test: ATP-dependent uptake of DNP-SG into GLC4/ADR plasma membrane vesicles; format: biochemical; settings: using 100 nM DNP-SG
T2 construct: using MRP1-transfected cells and several couples of MRP1 overexpressing cell lines and their parental cell lines; endogenous in cells; host or cells: GLC4, GLC4/ADR, HL60, HL60/ADR and SW1573 (endogenous)
From the text: One form of cellular resistance, directed against a wide spectrum of natural agents, is referred to as multidrug resistance (MDR). […] The ATP-dependent transport of anticancer drugs out of tumour cells that express MDR proteins may at least theoretically lead to impaired treatment outcome of patients. […] 1-Chloro-2,4-dinitrobenzene (CDNB) was from Sigma (St Louis, MO, USA). […] The isoflavonoid genis- tein was from ICN Biomedicals (Zoetermeer, The Netherlands). […] The (iso)flavonoids were dissolved as a stock solution of 40 mM in dimethyl sulphoxide (DMSO; Across Chimica, Belgium) and stored at -20C. Before experiments, 1:1 dilutions were made in ethanol, followed by a dilution in ethanol/water (1: 3; v/v) to the appropriate concentrations. The maximal concentration of DMSO and ethanol, which was also added to the controls, was 0.5% (v/v). Membrane filters OE67 were from Schleicher and Schuell (Dassel, Germany). Doxorubicin hydrochloride was from Laboratoire Roger Bellon (France). […] S1(MRP1) cells were cultured in the presence of G418 until 2-10 days before experiments. […] Cells were harvested by centrifugation (275 g, 5 min) and washed twice in phosphate-buffered saline. […] The radioactivity on the filters was measured by liquid scintillation counting. […]

[7] = system: SW1573; test: Growth inhibition assay, SW1573; format: cell-based; settings: Homo sapiens, read-out: IC50 value
[8] = system: S1(1.1); test: Growth inhibition assay, S1(1.1); format: cell-based; settings: Homo sapiens, 72 h, read-out: IC50 value
[9] = system: S1(MRP); test: Growth inhibition assay, S1(MRP); format: cell-based, human; settings: Homo sapiens, 72 h; S1(MRP); 3 days drug exposure; read-out: IC50 value

T1 sequence (P33527 whole entry): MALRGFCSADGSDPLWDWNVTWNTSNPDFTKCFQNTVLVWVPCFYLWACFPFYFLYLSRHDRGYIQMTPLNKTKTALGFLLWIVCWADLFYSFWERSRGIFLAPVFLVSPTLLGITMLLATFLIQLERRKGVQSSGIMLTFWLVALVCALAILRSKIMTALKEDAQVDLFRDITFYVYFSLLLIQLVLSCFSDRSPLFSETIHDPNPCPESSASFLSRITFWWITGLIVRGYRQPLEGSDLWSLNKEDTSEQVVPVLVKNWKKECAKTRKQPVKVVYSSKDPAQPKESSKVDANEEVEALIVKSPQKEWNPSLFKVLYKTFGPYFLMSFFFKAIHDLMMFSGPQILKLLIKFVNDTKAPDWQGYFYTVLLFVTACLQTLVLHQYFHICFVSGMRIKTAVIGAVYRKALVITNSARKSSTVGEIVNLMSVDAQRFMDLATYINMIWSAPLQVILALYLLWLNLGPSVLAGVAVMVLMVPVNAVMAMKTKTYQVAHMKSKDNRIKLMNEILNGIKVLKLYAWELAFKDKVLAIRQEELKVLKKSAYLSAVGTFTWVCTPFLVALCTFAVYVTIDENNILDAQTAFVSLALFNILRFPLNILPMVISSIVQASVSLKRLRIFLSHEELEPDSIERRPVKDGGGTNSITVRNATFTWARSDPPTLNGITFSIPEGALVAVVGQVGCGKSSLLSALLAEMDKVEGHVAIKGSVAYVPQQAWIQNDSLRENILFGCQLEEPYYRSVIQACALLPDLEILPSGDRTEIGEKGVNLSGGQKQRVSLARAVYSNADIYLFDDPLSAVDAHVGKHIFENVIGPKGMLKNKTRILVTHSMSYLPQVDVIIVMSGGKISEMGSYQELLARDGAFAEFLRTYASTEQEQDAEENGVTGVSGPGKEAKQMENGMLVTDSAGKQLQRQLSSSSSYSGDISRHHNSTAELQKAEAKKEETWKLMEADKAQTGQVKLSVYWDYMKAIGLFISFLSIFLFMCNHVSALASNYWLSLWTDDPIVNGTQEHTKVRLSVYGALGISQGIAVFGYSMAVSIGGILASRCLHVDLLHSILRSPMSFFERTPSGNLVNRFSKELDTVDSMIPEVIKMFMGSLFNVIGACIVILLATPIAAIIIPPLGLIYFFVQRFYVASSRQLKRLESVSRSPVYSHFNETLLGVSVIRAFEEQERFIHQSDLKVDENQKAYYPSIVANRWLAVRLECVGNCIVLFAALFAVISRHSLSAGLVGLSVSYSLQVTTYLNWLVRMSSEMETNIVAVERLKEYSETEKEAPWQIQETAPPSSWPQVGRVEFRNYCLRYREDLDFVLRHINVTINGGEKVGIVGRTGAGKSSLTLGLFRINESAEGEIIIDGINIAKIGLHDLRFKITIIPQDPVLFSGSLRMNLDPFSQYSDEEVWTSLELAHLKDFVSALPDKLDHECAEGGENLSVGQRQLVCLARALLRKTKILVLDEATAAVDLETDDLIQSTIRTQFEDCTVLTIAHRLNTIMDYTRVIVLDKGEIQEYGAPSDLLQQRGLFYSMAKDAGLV
T2 sequence (P33527 whole entry): as above

Compound: O=c1cc(-c2ccc(O)cc2)oc2cc(O[C@@H]3O[C@H](CO)[C@@H](O)[C@H](O)[C@H]3O)cc(O)c12 [Apigetrin, apigenin-7-glucose]
- Effect on accumulation of DNR in GLC4 cells [1]: small, but significant decrease
- Induction of ATPase activity of GLC4/ADR membranes in the concentration range tested [2]: did not induce ATPase activity
- Effect on accumulation of DNR in GLC4/ADR cells [3]: did not increase accumulation of DNR
- Accumulation of daunorubicin, mean percentages of control (set at 100%) ([3]; GLC4/ADR): 57%

Compound: CCCN(CCC)S(=O)(=O)c1ccc(C(=O)O)cc1 [probenecid]
- Effect of simultaneous incubation with probenecid on the cytotoxic effect of flavopiridol ([4]; GLC4/ADR, probenecid 0.5 mM, data not shown): did not alter
- Effect of simultaneous incubation with probenecid on the cytotoxic effect of flavopiridol ([5]; GLC4, probenecid 0.5 mM, data not shown): did not alter

Compound: O=c1c(-c2ccc(O)cc2)coc2cc(O[C@@H]3O[C@H](CO)[C@@H](O)[C@H](O)[C@H]3O)cc(O)c12 [Genistin, genistein-7-glucose]
- Accumulation of daunorubicin, mean percentages of control (set at 100%) [1]: 101%
- Induction of ATPase activity of GLC4/ADR membranes in the concentration range tested [2]: did not induce ATPase activity
- Effect on accumulation of DNR in GLC4/ADR cells [3]: did not increase accumulation of DNR
- Accumulation of daunorubicin, mean percentages of control (set at 100%) ([3]; GLC4/ADR): 96%

Compound: O=c1cc(-c2ccc(O)cc2)oc2cc(O)cc(O)c12 [Apigenin, apigenin]
- Accumulation of daunorubicin, mean percentages of control (set at 100%) [1]: 91%
- Effect on accumulation of DNR in GLC4/ADR cells [3]: increased the accumulation of DNR

Compound: N[C@@H](CCC(=O)N[C@@H](CSc1ccc([N+](=O)[O-])cc1[N+](=O)[O-])C(=O)NCC(=O)O)C(=O)O [DNP-SG, dinitrophenyl-S-glutathione]
- Stimulation of basal ATPase activity of GLC4/ADR membranes above the control ([2]; 10 M DNP-SG (μM)): 4.5 nmol mg protein-1 min-1
- ATPase activity stimulation compared to the control ([2]; 10 M DNP-SG (μM), without MIB6): 125%
- ATP-dependent uptake of DNP-SG into GLC4/ADR vesicles [6]: 490 pmol mg protein-1 min-1

Compound: O=c1c(O)c(-c2ccc(O)cc2)oc2cc(O)cc(O)c12 [Kaempferol, kaempferol]
- Resistance of MRP1 overexpressing cells [4]: No resistance
- IC50 [4]: 11 µM
- IC50 ([7]; SW1573, 72 h): 29 µM
- Accumulation of daunorubicin, mean percentages of control (set at 100%) [1]: 92%
- IC50 [8]: 43 µM
- IC50 ([5]; GLC4, 72 h): 25 µM
- Effect on accumulation of DNR in GLC4/ADR cells [3]: increased the accumulation of DNR
- Accumulation of daunorubicin, mean percentages of control (set at 100%) ([3]; GLC4/ADR): 190%

Compound: O=c1c(-c2ccc(O)cc2)coc2cc(O)cc(O)c12 [Genistein, genistein]
- Resistance of MRP1 overexpressing cells [4]: No resistance
- IC50 ([4]; GLC4/ADR, 3 days drug exposure): 13 µM
- IC50 ([7]; 72 h, SW1573, 3 days drug exposure): 10 µM
- Accumulation of daunorubicin, mean percentages of control (set at 100%) [1]: 107%
- IC50 ([8]; S1(1.1), 3 days drug exposure): 9 µM
- IC50 [9]: 9 µM
- ATPase stimulation, % of the control ([2]; 50 µM genistein (μM), without MIB6): 108%
- Concentrations at which ATPase activity of GLC4/ADR membranes was significantly induced ([2]; GLC4/ADR membranes, lowest effective concentration and higher): ≥ 1 µM
- IC50 ([5]; 72 h, GLC4, 3 days drug exposure): 12 µM
- Effect on accumulation of DNR in GLC4/ADR cells [3]: increased the accumulation of DNR
- Difference of DNR accumulation from control (P < 0.05) ([3]; GLC4/ADR, 10 M genistein (μM), Figure 6): gave a significant difference
- Modulation of cellular accumulation of DNR at low micromolar concentrations ([3]; GLC4/ADR, Figure 6): did not modulate

Compound: O=c1c(O[C@@H]2O[C@H](CO)[C@@H](O)[C@H](O)[C@H]2O)c(-c2ccc(O)cc2)oc2cc(O)cc(O)c12 [Kaempferol-3 glucose, kaempferol-3-glucose]
- Effect on accumulation of DNR in GLC4 cells [1]: small, but significant decrease
- Effect on accumulation of DNR in GLC4/ADR cells [3]: did not increase accumulation of DNR
